Laboratory results from patent publication US12409162B2, “Carbazole derivatives sensitizing cells to anti-cancer agents” (CENTRE NATIONAL DE LA RECHERCHE SCIENTIFIQUE, priority 2019, dated 2025).
Where two headings read alike, the source gives them in different places.

Experiments:
HeLa cell tumors = test: HeLa cell xenograft tumor growth in mice; assay type: in vivo
Method: The effects on tumor growth of compound (I-a) and paclitaxel injected separately to the effect of a combined administration of compound (I-a) plus paclitaxel were compared in a tumor mouse model.
A first series of experiments (not shown) assessed that HeLa cell tumors were sensitive to therapeutic doses of paclitaxel. To that aim, mice bearing sizable tumors, formed of HeLa cells that have been xenografted, received intraveinous (i.v.) injections of paclitaxel (from 2 to 8 mg/Kg), every two days during 10 days. In the same experiment, the effect of compound (I-a) (from 15 to 60 mg/Kg, i.v.) injected with the same schedule was analyzed. […] The results confirmed the anti-tumor effect of high paclitaxel concentrations in this model. They also indicate that compound (I-a), when applied alone, has no significant anti-tumor activity, even at high concentrations.
A second experiment was conducted to study of the effect on tumor size of low (2 to 3 mg/Kg) paclitaxel doses in combination with different concentrations of compound (I-a).
Protocol for this combination study: 72 NMRI nude mice (5-week-old females) were injected subcutaneously with 10×10^6 exponentially dividing HeLa cells into the right flank. When tumors have reached a volume of about 200 mm 3 i.e. nine days after cell injection, mice were randomized in 9 groups of 8 mice each and drugs were injected intraveinously every two days. The first group received paclitaxel at 2 mg/kg, the second group received paclitaxel at 3 mg/Kg, the third group received compound (I-a) at 40 mg/Kg, the fourth group received compound (I-a) at 60 mg/Kg, the fifth group received a combination of compound (I-a) (40 mg/Kg) and paclitaxel (2 mg/Kg), the sixth group received a combination of compound (I-a) (40 mg/Kg) and paclitaxel (3 mg/Kg), the seventh group received a combination of compound (I-a) (60 mg/Kg) and paclitaxel (2 mg/Kg), the eight group received a combination of compound (I-a) (60 mg/Kg) and paclitaxel (3 mg/Kg) and the ninth group received the vehicle (14% DMSO, 14% Tween 80 and 72% PBS). Tumor growth was monitored three times per week with a sliding caliper.

HeLa cells [1] = test: FITC Annexin V apoptosis assay by flow cytometry; assay type: cell-based; details: Paclitaxel 1 nM
Method: Apoptosis assay was performed with FITC Annexin V Apoptosis Detection Kit I (BD Biosciences, #556547) using flow cytometry and analyzed by FCS express software.

HeLa cells [2] = test: Prestoblue cell viability assay on HeLa cells (compounds alone and with paclitaxel); assay type: cell-based; details: Homo sapiens, HeLa, 72 h, HeLa, 72 h, read-out: GI50 of Paclitaxel
Method: Cell viability was analyzed using the colorimetric Prestoblue assay (Invitrogen, #A13262). Cells were seeded in 96 well microplates (Greiner, #655077) at a density of 2,500 cells per well and allowed to adhere for 24 h before being treated for 72 h with either DMSO (0.1% final concentration) or drugs at indicated concentrations. After the 72 h treatment, 10 μL A Prestoblue was added to each well and cells were incubated for another 45 min. The absorbance of each well was measured using FLUOstar Optima microplate reader (Excitation, 544 nm; Emission, 580 nm).
First, the cytotoxicity on HeLa cells of compounds (I-a), (I-c) (I-f), (I-h), (I-e), (I-m), (I-n) and (I-s) was assessed with the above described “prestoblue” assay.
Then, HeLa cells were treated during 72 hours with different concentrations of a mixture of paclitaxel (0.05, 0.1, 0.25, 0.5, 1, 2.5, 5 nM) and compounds (I-a), (I-f), (I-h), (I-e), (I-m), (I-n), (I-c) and (I-s).

RPE-1 cells = test: Prestoblue viability assay on non-cancerous RPE-1 cells; assay type: cell-based; details: Homo sapiens, 72 hours
Method: RPE-1 cells were incubated for 72 hours with the indicated combinations of compound (I-a)/paclitaxel. The percentage of viable cells was calculated following a Prestoblue assay, as described above. Data are presented as mean±SEM of 3 independent experiments.

HeLa cells [3] = test: Cell cycle distribution by flow cytometry; assay type: cell-based; details: paclitaxel 5 nM, after 15 hours
Method: For flow cytometry analysis, Hela cells were treated with the indicated concentrations of compound (I-a) for 12 hours, 24 hours and 48 hours. Cells were then harvested and washed by centrifugation in PBS. Then, 10^5 cells were fixed in 1 mL of 70% methanol at 4° C. overnight. Following two washes with PBS the cells were incubated with 50 μg·mL^−1 propidium iodide and 0.2 mg·mL^−1 RNase A/PBS for 30 min at 37° C. before analysis. The percentage of cells in the specific cell-cycle phases (G0, G1, S, G2, and M) was determined using an Accuri C6 flow cytometer (Becton Dickinson). The results are expressed as the mean±SD of three separate experiments. The significance was determined by a Student's t-test (*p<0.05, **p<0.01, ***p<0.0001, compared with the control). Flow cytometry analysis was performed using HeLa cells. […] The results are expressed as the mean±SD of three separate experiments. The significance was determined by a Student's t-test (*p<0.05, **p<0.01, ***p<0.0001, compared with the control).

## CC(=O)O[C@H]1C(=O)[C@@]2(C)[C@H]([C@H](OC(=O)c3ccccc3)[C@]3(O)C[C@H](OC(=O)[C@H](O)[C@@H](NC(=O)c4ccccc4)c4ccccc4)C(C)=C1C3(C)C)[C@]1(OC(C)=O)CO[C@@H]1C[C@@H]2O [Paclitaxel, paclitaxel]
HeLa cell tumors; combination study, each compound administered separately (paclitaxel 2 or 3 mg/Kg, (I-a) 40 or 60 mg/Kg)
  tumor size: no effect
HeLa cell tumors; first experiment, paclitaxel 2 to 8 mg/Kg or (I-a) 15 to 60 mg/Kg i.v. every two days during 10 days
  weight of treated animals versus vehicle-treated animals: not significantly different
HeLa cell tumors; first experiment, paclitaxel 4 and 8 mg/Kg i.v. every two days during 10 days
  tumor size: important reduction of tumor size
HeLa cells [1]
  % of apoptosis: 13.00 ± 0.48%
HeLa cells [2]; 0.1 μM compound (I-h) added to paclitaxel
  GI50: 1.25 nM
HeLa cells [2]; 0.2 μM compound (I-h) added to paclitaxel
  GI50: 1.07 nM
HeLa cells [2]; 0.4 μM compound (I-h) added to paclitaxel
  GI50: 0.79 nM
HeLa cells [2]; 0.8 μM compound (I-e) added to paclitaxel
  GI50: 1.36 nM
HeLa cells [2]; 1.2 μM compound (I-c) added to paclitaxel
  GI50: 0.75 nM
HeLa cells [2]; 1.2 μM compound (I-s) added to paclitaxel
  GI50: 0.75 nM
HeLa cells [2]; 1.5 μM compound (I-e) added to paclitaxel
  GI50: 1.25 nM
HeLa cells [2]; 1.5 μM compound (I-f) added to paclitaxel
  GI50: 1.36 nM
HeLa cells [2]; 3 μM compound (I-a) added to paclitaxel
  GI50: 1.36 nM
HeLa cells [2]; 3 μM compound (I-e) added to paclitaxel
  GI50: 1.2 nM
HeLa cells [2]; 3 μM compound (I-f) added to paclitaxel
  GI50: 1.25 nM
HeLa cells [2]; 3 μM compound (I-m) added to paclitaxel
  GI50: 1.5 nM
HeLa cells [2]; 3 μM compound (I-n) added to paclitaxel
  GI50: 1.5 nM
HeLa cells [2]; 6 μM compound (I-a) added to paclitaxel
  GI50: 1.2 nM
HeLa cells [2]; 6 μM compound (I-f) added to paclitaxel
  GI50: 0.88 nM
HeLa cells [2]; 6 μM compound (I-m) added to paclitaxel
  GI50: 1.5 nM
HeLa cells [2]; 6 μM compound (I-n) added to paclitaxel
  GI50: 1.5 nM
HeLa cells [2]; 12 μM compound (I-a) added to paclitaxel
  GI50: 0.68 nM
HeLa cells [2]; 12 μM compound (I-m) added to paclitaxel
  GI50: 1.25 nM
HeLa cells [2]; 12 μM compound (I-n) added to paclitaxel
  GI50: 1.25 nM
HeLa cells [2]; paclitaxel alone (0 μM compound added), HeLa cells
  GI50: 1.5 nM
RPE-1 cells
  GI50: 7 nM
HeLa cells [3]
  cell population blocked in G2/M phase: half of the cell population
  cells in apoptosis: ~20%
